Measurements published in paper PMC12292628, “Inhibitory Effects of 3-(4-Hydroxy-3-methoxyphenyl) Propionic Acid on Amyloid β-Peptide Aggregation In Vitro” (Biomedicines, 2025).
pEC50: −log10 of the molar value.

Target: T1, Aβ42 (amyloid-β protein) (Homo sapiens, UniProt P05067)
T1 construct: gene APP; synthetic Aβ42 peptide, low-molecular-weight (LMW, monomeric) Aβ42
Assay: ThT fluorescence aggregation assay with purified LMW Aβ[…] (no seeds); electron microscopy
Type: biochemical

T1 sequence (P05067 672-713 limits assumed): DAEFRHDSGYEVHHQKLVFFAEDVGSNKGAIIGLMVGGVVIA

- pEC50: 2.20
SMILES: COc1cc(CCC(=O)O)ccc1O [HMPA, 3-(4-Hydroxy-3-methoxyphenyl) propionic acid]
